The values below come from the RepoRT retention time repository (doi:10.1007/s11306-011-0298-z).

Each structure is given as a SMILES string.

This series can be described thus: RP, Waters ACQUITY UPLC HSS T3, 100 × 2.1 mm, 1.8 µm, 30 °C, 0.3 mL/min, estimated dead time 0.73 min; A: water + 0.1% formic acid, pH 3; B: methanol + 0.1% formic acid, pH 3; gradient (min/%B) 0/0 6/0 56/100 60/100. The conditions noted are these: stereoisomer not certain.
In the case of `Oc1ccc(C=Cc2cc(O)cc3c2C(c2cc(O)cc(O)c2)C(c2ccc(O)cc2)O3)cc1` (centres undefined), the LC retention time was 33.5 min. Turning to `OCC1OC(Oc2ccccc2)C(O)C(O)C1O` (centres undefined), the LC retention time is 16.4 min. Next, `Nc1ncnc2c1ncn2C1OC(COP(=O)(O)O)C(O)C1O` (centres undefined): 4.08 min; `OCC(O)C(O)CO` (racemic): 1.41 min. Next, `CC(C)CCCC(C)C1CCC2C3CC4OC45CC(O)CCC5(C)C3CCC12C` (racemic): 57.7 min. For the compound `CC1=CCCC(C)(C)C12CCC(C)O2` (racemic), the LC retention time is 48.1 min.

Turning to `O=C(C=Cc1ccc(O)c(O)c1)OC1CC(OC(=O)C=Cc2ccc(O)c(O)c2)(C(=O)O)CC(O)C1O` (centres undefined) [1,3 - dicaffeoylquinic acid], the LC retention time is 24.9 min. As to `NCCCN` [1,3 diaminopropane], the LC retention time was 1 min. For the compound `NCCCCN` [1,4-diaminobutane], the LC retention time was 1.1 min. Next, `O=C(O)Cc1c[nH]c2ccccc12` [1H-indol-3-ylacetic acid]: 26.6 min; `Nc1nc2c(ncn2C2CC(O)C(COP(=O)(O)O)O2)c(=O)[nH]1` (centres undefined) [2'-deoxyguanosine-5'-phosphate]: 7.99 min; `O=C(O)c1c(O)cccc1O` [2,6-dihydroxybenzoic acid]: 16.9 min.

On to `O=C(O)C(=O)C(O)C(O)C(O)CO` [2-keto-D-gluconic acid], for which the LC retention time is 1.4 min. As to `C=Cc1ccc(O)c(OC)c1` [2-methoxy-4-vinylphenol], the LC retention time is 31.3 min.

As to `CCC(C)CN` (centres undefined) [2-methylbutylamine], the LC retention time was 6.5 min.

For `CC(C)C(=O)OCCOc1ccccc1` [2-phenoxyethyl isobutyrate], the LC retention time was 40.2 min. As to `O=C1CCCN1` [2-pyrrolidinone], the LC retention time was 5.9 min. Next, `O=Cc1ccc(O)c(O)c1` [3,4 dihydroxybenzaldehyde]: 16.2 min; `O=C(O)c1cc(O)cc(O)c1` [3,5-dihydroxybenzoic acid]: 14.3 min; `CCOc1cc(C=O)ccc1O` [3-ethoxy-4-hydroxybenzaldehyde]: 27.2 min. As for `CC(O)(CC(=O)O)CC(=O)O` [3-hydroxy-3-methyl glutaric acid], the LC retention time is 7.04 min. For `O=Cc1cccc(O)c1` [3-hydroxybenzaldehyd], the LC retention time was 20.3 min. Next, `Cc1c[nH]c2ccccc12` [3-methyl indole]: 34.1 min. In the case of `CC(=O)CCc1ccc(O)cc1` [4-(4-hydroxyphenyl)butan-2-one], the LC retention time is 24.6 min. Next, `Nc1ccc(C(=O)O)cc1` [4-aminobenzoic acid]: 12.3 min. Next, `CN(C)c1ccc(C=CC=O)cc1` [4-dimethylaminocinnamaldehyde]: 34.5 min. On to `O=C(O)c1ccc(O)cc1` [4-hydroxybenzoic acid], for which the LC retention time was 17.5 min. Take `O=c1cc(O)c2ccccc2o1` [4-hydroxycoumarin]: the LC retention time is 24.2 min. On to `Cc1cc(=O)oc2cc(O)ccc12` [4-methylumbelliferone], for which the LC retention time was 27.8 min. Regarding `Oc1ccc(C=Cc2ccccc2)cc1` [4-stilbenol], the LC retention time is 41.8 min. As to `O=Cc1ccc(CO)o1` [5-hydroxymethyl-2-furaldehyde], the LC retention time was 11.9 min. Consider `Cc1ccc(C=O)o1` [5-methyl furfural], for which the LC retention time was 20.3 min. As to `COc1ccc2oc(-c3ccccc3)cc(=O)c2c1` [6-methoxyflavone], the LC retention time was 42.9 min. `CCCCCC(O)C=CC=CCC=CCC=CCCCC(=O)O` [15(S)hydroxy-(5Z,8Z,11Z,13E)-eicosatetraenoic acid]: the LC retention time was 50.4 min. Next, `CC(C)=C1CCC(C)CC1=O` [(R)-(+)-pulegone]: 38.9 min. On to `COc1cc(C(C)=O)ccc1O` [Acetovanillone], for which the LC retention time is 23.9 min. Take `O=C(O)CC(Nc1ncnc2c1ncn2C1OC(COP(=O)(O)O)C(O)C1O)C(=O)O` (centres undefined) [Adenylosuccinic acid]: the LC retention time was 12.7 min. In the case of `NC(=O)CCCCC1CCSS1` (stereo not drawn) [Alpha lipoamide], the LC retention time is 29 min.

With `CCCCCCCCCCCCCCCCCC(=O)OCCCC` [Butyl stearate], the LC retention time is 59.5 min. In the case of `OCC1OC(OC2C(Oc3cc4c(O)cc(O)cc4[o+]c3-c3ccc(O)c(O)c3)OC(CO)C(O)C2O)C(O)C(O)C1O` (centres undefined) [Cyanidin 3-sophoroside], the LC retention time was 21.4 min. As to `OCc1ccccc1OC1OC(CO)C(O)C(O)C1O` (stereo not drawn) [D(-)-Salicin], the LC retention time was 16.1 min. On to `O=C(CO)C(O)C(O)C(O)CO` (stereo not drawn) [D(-)fructose], for which the LC retention time was 1.4 min. As to `C[C@@H](O)[C@H](O)[C@H](O)[C@@H](O)C=O` [D-(+)-fucose], the LC retention time is 1.8 min. Next, `OCC1OC(OC2OC(CO)C(O)C(O)C2O)C(O)C(O)C1O` [D-(+)-trehalose]: 1.5 min.

With `O=C[C@H](O)[C@@H](O)[C@@H](O)[C@H](O)C(=O)O` [D-(+)galacturonic acid], the LC retention time is 1.33 min.

As for `OCC1OC(O)C(O)C1O` [D-(-)-Ribose], the LC retention time was 1.4 min. Next, `CC(C)(CO)C(O)C(=O)NCCC(=O)O` [D-pantothenic acid]: 14.3 min. Consider `CCCCCCCCCCCC=CC=CC=CC=CC=CC(=O)O` [Docosapentaenoic acid], for which the LC retention time is 54 min. Next, `Oc1ccc(C=Cc2cc(O)cc3c2C(c2cc(O)cc4c2C(c2cc(O)cc(O)c2)C(c2ccc(O)cc2)O4)C(c2ccc(O)cc2)O3)cc1` (stereo not drawn) [E-cis-miyabenol C]: 32.6 min; `Cc1cc2nc3c(=O)[nH]c(=O)nc-3n(CC(O)C(O)C(O)COP(=O)(O)OP(=O)(O)OCC3OC(n4cnc5c(N)ncnc54)C(O)C3O)c2cc1C` (centres undefined) [FAD]: 20.7 min; `Cc1cc2nc3c(=O)[nH]c(=O)nc-3n(CC(O)C(O)C(O)COP(=O)(O)O)c2cc1C` (centres undefined) [FMN]: 21.9 min. Next, `CC(CCC(=O)O)C1CCC2C3C(O)C(O)C4CC(O)CCC4(C)C3CCC12C` (centres undefined) [Hyocholic acid]: 45.6 min. With `O=Cc1c[nH]c2ccccc12` [Indole-3-aldehyde], the LC retention time is 25.1 min. Regarding `O=C(O)C(O)Cc1c[nH]c2ccccc12` (centres undefined) [Indolelactic acid], the LC retention time was 24.6 min. Turning to `O=C(O)[C@H](O)[C@@H](O)C(=O)O` [L-(+)-tartaric acid], the LC retention time is 1.51 min. With `NC(=O)CC[C@H](N)C(=O)O` [L-Glutamine], the LC retention time was 1.3 min. For the compound `CCCCCCCCC=CCCCCCCCC(=O)OC(COC(=O)CCCCCCCCCCCCCCC)COP(=O)([O-])OCC[N+](C)(C)C` [L-a-Phosphatidylcholine], the LC retention time was 59.9 min. Turning to `NC(=O)C[C@H](N)C(=O)O` [L-asparagine], the LC retention time is 1.27 min. Turning to `N[C@@H](CC(=O)O)C(=O)O` [L-aspartic acid], the LC retention time is 1.28 min. Next, `NC(=O)NCCC[C@H](N)C(=O)O` [L-citrulline]: 1.4 min. For `N[C@@H](CCSC[C@H](N)C(=O)O)C(=O)O` [L-cystathionine], the LC retention time is 1.21 min. Take `N[C@@H](CS)C(=O)O` [L-cysteine]: the LC retention time is 1.23 min.

For the compound `N[C@@H](CCC(=O)O)C(=O)O` [L-glutamic acid], the LC retention time was 1.31 min. Regarding `NC(CCC(=O)NC(CS)C(=O)NCC(=O)O)C(=O)O` [L-glutathione], the LC retention time was 3.4 min.

For `N[C@@H](Cc1cnc[nH]1)C(=O)O` [L-histidine], the LC retention time was 1.2 min. For the compound `N[C@@H](CCO)C(=O)O` [L-homoserine], the LC retention time was 1.29 min. On to `CC[C@H](C)[C@H](N)C(=O)O` [L-isoleucine], for which the LC retention time was 4.62 min.

For `Nc1ccccc1C(=O)CC(N)C(=O)O` [L-kynurenine], the LC retention time is 11 min.

Turning to `CC(C)C[C@H](N)C(=O)O` [L-leucine], the LC retention time is 4.98 min. On to `NCCCC[C@H](N)C(=O)O` [L-lysine], for which the LC retention time is 1.18 min. Consider `O=C(O)C[C@H](O)C(=O)O` [L-malic acid], for which the LC retention time was 2 min. Next, `CSCC[C@H](N)C(=O)O` [L-methionine]: 2.8 min; `CCC[C@H](N)C(=O)O` [L-norvaline]: 2.3 min; `NCCC[C@H](N)C(=O)O` [L-ornithine]: 1.1 min. As for `N[C@@H](Cc1ccccc1)C(=O)O` [L-phenylalanine], the LC retention time was 11.5 min.

For `O=C(O)[C@@H]1CCCN1` [L-proline], the LC retention time is 1.59 min. Take `N[C@@H](CCCCN[C@@H](CCC(=O)O)C(=O)O)C(=O)O` [L-saccharopine]: the LC retention time is 1.38 min.

Turning to `N[C@@H](CO)C(=O)O` [L-serine], the LC retention time is 1.22 min. Next, `C[C@@H](O)[C@H](N)C(=O)O` [L-threonine]: 1.3 min. For the compound `N[C@@H](Cc1c[nH]c2ccccc12)C(=O)O` [L-tryptophan], the LC retention time is 16 min. Take `N[C@@H](Cc1ccc(O)cc1)C(=O)O` [L-tyrosine]: the LC retention time is 6.08 min.

Turning to `CC(C)[C@H](N)C(=O)O` [L-valine], the LC retention time is 2.19 min.

With `CCCCCCCCCCCCCCCCCCCCC(=O)OC` [Methyl henicosanoate], the LC retention time was 60.4 min.

With `CC1OC(Oc2c(-c3cc(O)c(O)c(O)c3)oc3cc(O)cc(O)c3c2=O)C(O)C(O)C1O` (centres undefined) [Myricitrin (myricetin 3-O-rhamnoside)], the LC retention time is 28.3 min.
